From ChEMBL document CHEMBL1201862, “PubChem BioAssay data set” (2004)
The source made the active and inactive calls.

Experiments:
[1] = A cytotoxicity screen of small molecule inhibitors of the PhoP region in Salmonella typhi identified in the primary screen. [Related pubchem assays: 1850, 1864, 1985 ]; type: functional
[2] = target: Cytochrome P450 2C19 (Homo sapiens, UniProt P33261); test: Cytochrome panel assay with activity outcomes. Panel member name: p450-cyp2c19 Compounds with AC50 equal or less than 10 uM are considered active; type: functional; settings: read-out: AC50
[3] = target: Cytochrome P450 3A4 (Homo sapiens, UniProt P08684);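 also: CYP3A4 tested as one member of a cytochrome P450 panel screen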
[4] = target: Cytochrome P450 2C9 (Homo sapiens, UniProt P11712)
[5] = target: FAD-linked sulfhydryl oxidase ALR (Homo sapiens, UniProt P55789); test: inhibitors of human ALR sulfhydryl oxidase, dose response, biochemical, H2O2 detection, luminescence, cherry-pick (AID 493248)
[6] = Luminescence Cell-Based Dose Confirmation HTS to Identify Activators of 5'UTR Stem-Loop Driven Alpha-Synuclein mRNA Translation in H4 Neuroglioblastoma Cells. [Related pubchem assays: 1829 (Project Summary), 1814 (Primary HTS)]; type: functional
[7] = system: H4; test: Luminescence Cell-Based Dose Response HTS to Identify Activators of 5'UTR Stem-Loop Driven Prion Protein mRNA Translation in H4 Neuroglioblastoma Cells. [Related pubchem assays: 1829 (Project Summary), 1814 (Primary HTS)]; type: functional; settings: Homo sapiens
[8] = Luminescence Cell-Based Dose Response HTS to Identify Activators of Luciferase Translation or Activity in H4 […] Cells. [Related pubchem assays: 1829 (Project Summary), 1814 (Primary HTS)]; type: functional
[9] = target: T1, Caspase-6 (Homo sapiens, UniProt P55212); test: human caspase-6 inhibitors, dose response, biochemical, VEID-R110 fluorescence, cherry-pick (AID 720632)
T1 sequence (P55212 whole entry): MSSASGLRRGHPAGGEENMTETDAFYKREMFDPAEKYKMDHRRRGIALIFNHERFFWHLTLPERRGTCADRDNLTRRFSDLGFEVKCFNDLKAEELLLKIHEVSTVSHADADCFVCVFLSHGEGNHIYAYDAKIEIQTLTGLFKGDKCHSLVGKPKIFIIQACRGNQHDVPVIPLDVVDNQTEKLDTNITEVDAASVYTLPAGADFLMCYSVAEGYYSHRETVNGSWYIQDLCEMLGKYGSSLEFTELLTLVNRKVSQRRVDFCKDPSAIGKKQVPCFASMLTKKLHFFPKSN

[10] = target: T2, Replicative DNA helicase DnaB (Mycobacterium tuberculosis, UniProt P9WMR3); test: DnaB intein splicing inhibitors, dose response, biochemical, cell-free fluorescence (AID 449749); type: functional
T2 sequence (P9WMR3 whole entry): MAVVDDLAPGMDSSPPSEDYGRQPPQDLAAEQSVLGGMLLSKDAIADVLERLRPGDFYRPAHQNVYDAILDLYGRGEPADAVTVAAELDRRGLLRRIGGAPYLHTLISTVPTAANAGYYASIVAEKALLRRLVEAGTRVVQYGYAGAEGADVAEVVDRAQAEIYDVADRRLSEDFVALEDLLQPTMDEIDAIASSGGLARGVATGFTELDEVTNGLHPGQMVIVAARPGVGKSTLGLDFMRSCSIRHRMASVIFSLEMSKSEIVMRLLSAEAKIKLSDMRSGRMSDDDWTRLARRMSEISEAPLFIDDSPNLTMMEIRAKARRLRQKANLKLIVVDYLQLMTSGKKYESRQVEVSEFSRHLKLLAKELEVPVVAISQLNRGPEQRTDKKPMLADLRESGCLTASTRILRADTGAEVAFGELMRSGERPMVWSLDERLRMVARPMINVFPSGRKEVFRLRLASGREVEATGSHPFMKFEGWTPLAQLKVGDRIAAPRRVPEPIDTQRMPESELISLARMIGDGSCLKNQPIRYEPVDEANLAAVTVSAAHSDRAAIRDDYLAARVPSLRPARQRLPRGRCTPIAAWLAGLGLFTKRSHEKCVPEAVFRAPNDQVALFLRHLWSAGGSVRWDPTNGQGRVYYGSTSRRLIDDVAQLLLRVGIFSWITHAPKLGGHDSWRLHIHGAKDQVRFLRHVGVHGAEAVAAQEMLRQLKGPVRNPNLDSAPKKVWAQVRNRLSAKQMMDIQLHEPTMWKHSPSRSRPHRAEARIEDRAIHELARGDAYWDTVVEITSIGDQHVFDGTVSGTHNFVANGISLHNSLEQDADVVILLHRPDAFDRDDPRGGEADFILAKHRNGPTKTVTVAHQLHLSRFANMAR

[11] = target: Large T antigen (Simian virus 40, UniProt P03070); type: functional, Betapolyomavirus macacae;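 also: Confirmatory-stage PubChem screen for compounds that inhibit SV40 T antigen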
[12] = target: T3, Protein RecA (Mycobacterium tuberculosis, UniProt P9WHJ3); test: Fluorescence Cell-Free Homogeneous Dose Retest to Identify Inhibitors of RecA-Intein Splicing Activity. [Related pubchem assays (depositor defined):AID2097, AID2223, AID489010, AID492950]; type: functional
T3 sequence (P9WHJ3 whole entry): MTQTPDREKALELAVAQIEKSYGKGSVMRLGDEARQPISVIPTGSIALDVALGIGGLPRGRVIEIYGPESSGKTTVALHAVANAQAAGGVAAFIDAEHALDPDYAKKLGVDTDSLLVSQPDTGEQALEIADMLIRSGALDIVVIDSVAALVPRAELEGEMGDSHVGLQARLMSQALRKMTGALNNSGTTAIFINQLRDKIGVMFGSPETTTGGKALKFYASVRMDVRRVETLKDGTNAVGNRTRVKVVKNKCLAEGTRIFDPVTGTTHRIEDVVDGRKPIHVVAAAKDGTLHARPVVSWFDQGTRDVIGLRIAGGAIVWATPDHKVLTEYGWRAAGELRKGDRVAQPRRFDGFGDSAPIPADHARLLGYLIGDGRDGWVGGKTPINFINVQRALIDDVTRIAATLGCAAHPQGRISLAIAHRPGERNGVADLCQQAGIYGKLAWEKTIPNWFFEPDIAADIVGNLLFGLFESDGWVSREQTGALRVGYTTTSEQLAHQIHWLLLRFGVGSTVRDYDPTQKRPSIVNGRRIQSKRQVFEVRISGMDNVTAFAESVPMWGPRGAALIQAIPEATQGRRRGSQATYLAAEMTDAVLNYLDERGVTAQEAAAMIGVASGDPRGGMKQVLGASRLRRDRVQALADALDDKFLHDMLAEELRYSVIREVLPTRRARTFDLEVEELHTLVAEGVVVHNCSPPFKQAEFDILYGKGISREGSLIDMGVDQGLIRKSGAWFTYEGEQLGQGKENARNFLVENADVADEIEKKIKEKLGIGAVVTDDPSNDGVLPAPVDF

[13] = target: T4, Rac GTPase-activating protein 1 (Homo sapiens, UniProt Q9H0H5); test: MgcRacGAP GTPase-activating activity inhibitors, confirmation, biochemical, ADP Hunter fluorescence, primary and confirmatory (AID 624330); type: functional
T4 sequence (Q9H0H5 whole entry): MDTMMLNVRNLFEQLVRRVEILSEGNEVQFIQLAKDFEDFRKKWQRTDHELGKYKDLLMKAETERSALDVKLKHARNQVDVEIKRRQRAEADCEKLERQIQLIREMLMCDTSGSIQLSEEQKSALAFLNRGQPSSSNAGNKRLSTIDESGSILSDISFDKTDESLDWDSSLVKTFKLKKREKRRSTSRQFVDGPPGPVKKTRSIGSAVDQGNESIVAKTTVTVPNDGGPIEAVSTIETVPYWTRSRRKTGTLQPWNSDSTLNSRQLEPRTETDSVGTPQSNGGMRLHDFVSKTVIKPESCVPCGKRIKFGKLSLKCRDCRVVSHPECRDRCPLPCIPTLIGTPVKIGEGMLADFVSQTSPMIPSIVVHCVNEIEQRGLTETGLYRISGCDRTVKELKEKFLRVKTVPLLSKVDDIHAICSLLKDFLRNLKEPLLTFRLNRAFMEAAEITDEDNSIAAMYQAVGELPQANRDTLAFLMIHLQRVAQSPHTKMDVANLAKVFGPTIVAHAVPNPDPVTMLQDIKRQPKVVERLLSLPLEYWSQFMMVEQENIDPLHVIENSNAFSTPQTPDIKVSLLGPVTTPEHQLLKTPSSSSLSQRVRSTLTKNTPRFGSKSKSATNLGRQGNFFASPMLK

[14] = system: H9c2; test: cells; type: functional, cell-based; settings: Rattus norvegicus, H9c2, Myocardium;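 also: confirmatory concentration-response retest of ultra-high-throughput screening hits for modulation of myocardial damage; cell death induced by hydrogen peroxide oxidative stress; compound pretreatment for 60 min then peroxide exposure for 2 h; potency is for protecting the cells against peroxide damage rather than for killing them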
[15] = intracellular Trypanosoma cruzi inhibitors in host cells – cell-based, plate reader, cherry-pick samples, set 3, dose response (AID 651818); type: functional;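 also: compounds incubated with infected cells for about four days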

Chain of Large T antigen (P03070 whole entry): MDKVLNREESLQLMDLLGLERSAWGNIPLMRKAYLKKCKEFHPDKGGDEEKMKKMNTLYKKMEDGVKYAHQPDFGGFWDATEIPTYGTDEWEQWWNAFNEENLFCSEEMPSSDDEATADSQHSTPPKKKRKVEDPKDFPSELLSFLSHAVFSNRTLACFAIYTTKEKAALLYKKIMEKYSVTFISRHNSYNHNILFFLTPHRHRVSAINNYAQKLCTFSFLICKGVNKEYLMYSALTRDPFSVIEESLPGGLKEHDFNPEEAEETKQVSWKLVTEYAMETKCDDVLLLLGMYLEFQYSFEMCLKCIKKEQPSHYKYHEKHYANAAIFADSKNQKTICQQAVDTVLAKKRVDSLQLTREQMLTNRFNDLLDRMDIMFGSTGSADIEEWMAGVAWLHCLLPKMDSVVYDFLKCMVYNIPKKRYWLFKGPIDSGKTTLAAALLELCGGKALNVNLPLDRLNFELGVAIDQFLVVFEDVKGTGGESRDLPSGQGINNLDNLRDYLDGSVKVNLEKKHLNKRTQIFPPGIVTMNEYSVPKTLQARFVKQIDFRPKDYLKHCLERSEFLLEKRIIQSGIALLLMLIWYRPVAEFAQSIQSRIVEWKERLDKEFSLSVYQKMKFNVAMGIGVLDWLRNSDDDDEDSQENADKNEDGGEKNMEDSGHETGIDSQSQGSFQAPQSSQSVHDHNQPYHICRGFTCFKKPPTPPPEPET
Chain of Cytochrome P450 2C9 (P11712 whole entry): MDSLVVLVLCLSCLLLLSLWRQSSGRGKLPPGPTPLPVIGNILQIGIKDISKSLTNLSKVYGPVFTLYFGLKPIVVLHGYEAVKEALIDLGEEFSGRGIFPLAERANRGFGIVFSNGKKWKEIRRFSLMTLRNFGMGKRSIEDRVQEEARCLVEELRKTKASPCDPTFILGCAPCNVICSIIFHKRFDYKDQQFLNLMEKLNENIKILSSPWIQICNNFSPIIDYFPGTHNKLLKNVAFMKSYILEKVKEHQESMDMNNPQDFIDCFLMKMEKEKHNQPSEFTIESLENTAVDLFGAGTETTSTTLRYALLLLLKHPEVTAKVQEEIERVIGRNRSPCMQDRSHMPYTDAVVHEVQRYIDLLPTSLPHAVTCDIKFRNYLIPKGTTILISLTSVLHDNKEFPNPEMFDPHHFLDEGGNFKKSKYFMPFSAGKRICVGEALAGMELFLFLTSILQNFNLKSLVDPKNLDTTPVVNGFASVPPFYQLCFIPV
Chain of Cytochrome P450 2C19 (P33261 whole entry): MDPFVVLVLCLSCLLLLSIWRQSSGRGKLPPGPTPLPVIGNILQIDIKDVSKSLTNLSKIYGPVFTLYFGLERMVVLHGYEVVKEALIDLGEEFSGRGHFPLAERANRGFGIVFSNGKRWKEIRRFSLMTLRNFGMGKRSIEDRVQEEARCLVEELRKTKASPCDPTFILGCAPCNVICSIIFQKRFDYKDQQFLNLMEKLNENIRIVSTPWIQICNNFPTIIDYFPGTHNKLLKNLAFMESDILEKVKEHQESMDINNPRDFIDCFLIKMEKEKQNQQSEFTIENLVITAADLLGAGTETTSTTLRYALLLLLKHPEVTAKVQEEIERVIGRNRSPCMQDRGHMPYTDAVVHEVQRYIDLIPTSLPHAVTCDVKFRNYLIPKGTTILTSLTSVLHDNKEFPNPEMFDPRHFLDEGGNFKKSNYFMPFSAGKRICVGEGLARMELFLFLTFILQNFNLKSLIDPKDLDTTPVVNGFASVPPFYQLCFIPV
Chain of Cytochrome P450 3A4 (P08684 whole entry): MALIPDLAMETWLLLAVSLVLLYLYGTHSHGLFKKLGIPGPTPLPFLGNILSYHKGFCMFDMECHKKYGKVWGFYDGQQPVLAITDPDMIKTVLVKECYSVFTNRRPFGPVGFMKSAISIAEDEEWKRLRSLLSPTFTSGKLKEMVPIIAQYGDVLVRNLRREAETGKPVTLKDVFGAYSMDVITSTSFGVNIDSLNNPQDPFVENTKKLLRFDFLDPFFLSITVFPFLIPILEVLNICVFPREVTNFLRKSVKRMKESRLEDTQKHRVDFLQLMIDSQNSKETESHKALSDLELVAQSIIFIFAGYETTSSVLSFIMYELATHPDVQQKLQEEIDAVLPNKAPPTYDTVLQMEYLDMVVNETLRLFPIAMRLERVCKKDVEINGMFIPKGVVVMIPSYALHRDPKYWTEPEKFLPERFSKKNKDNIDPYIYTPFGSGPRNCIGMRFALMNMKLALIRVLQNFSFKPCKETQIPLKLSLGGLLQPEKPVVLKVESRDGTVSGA
Chain of FAD-linked sulfhydryl oxidase ALR (P55789 whole entry): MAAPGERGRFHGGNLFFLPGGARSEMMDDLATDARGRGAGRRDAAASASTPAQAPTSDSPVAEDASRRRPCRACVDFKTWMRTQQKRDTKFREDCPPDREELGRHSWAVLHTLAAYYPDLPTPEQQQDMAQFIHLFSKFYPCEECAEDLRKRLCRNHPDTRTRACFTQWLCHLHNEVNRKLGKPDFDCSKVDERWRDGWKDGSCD

Nc1[nH]cnc2nc(SCC(=O)Nc3cccc(C(F)(F)F)c3)nc1-2
EC50 [1]: > 50 µM (active)

Cc1c(Cl)cccc1NC(=O)C[C@H]1Sc2ccccc2NC1=O
AC50 [2]: 3.16 µM (inconclusive)
AC50 [3]: 3.98 µM (inconclusive)
AC50 [4]: inconclusive

O=C(/C=C\c1ccc(O)c(O)c1)O[C@@H]1C[C@](O)(C(=O)O)C[C@@H](O)[C@@H]1O
AC50 [4]: inconclusive

O=Cc1ccc(N2CCCCCC2)cc1
EC50 [1]: > 50 µM (active)

CCOC(=O)c1nc2cc3n(c(CC(C)C)c-2c1C)CC(C)=C3C
EC50 [1]: > 50 µM (active)

CCOc1c2ccc(C(=O)NC3CCCc4ccccc43)cc2nn1C (configuration not stated)
AC50 [4]: inconclusive

Cc1ccc(C(=O)c2cn(-c3ccc(F)c(Cl)c3)nn2)cc1
AC50 [4]: inconclusive

NC(=O)CN1N=C(c2cc(Cl)sc2Cl)CSC1=O
EC50 [1]: > 50 µM (active)

CCN1C(=O)C(O)(C2COC(C)(C)CC2=O)c2ccccc21 (configuration not stated)
AC50 [2]: 25.1 µM (inconclusive)
AC50 [4]: inconclusive

CC1CC(C)CN(S(=O)(=O)c2cccc3cccnc23)C1 (configuration not stated)
EC50 [1]: > 50 µM (active)
AC50 [5]: 17.4 µM (active)

COc1cccc(C(=O)Nc2ccc(N3CCN(C(=O)c4ccco4)CC3)cc2)c1
EC50 [6]: > 120 µM (not active)
EC50 [7]: > 120 µM (not active)
EC50 [8]: 8.46 µM (active)

CC(Oc1ccc(F)cc1)C(=O)Nc1cccc(-c2nn[nH]n2)c1 (configuration not stated)
AC50 [9]: 32.6 µM (active)

COc1ccc(/C=C(/C#N)C(=O)Nc2ccc(O)cc2)cc1C(=O)O
AC50 [10]: 32.1 µM (active)
IC50 [11]: 36.9 µM (active)
EC50 [12]: 8.43 µM (active)

COc1ccc2c(C(=O)CN(C)C3CCCCC3)c[nH]c2c1
EC50 [1]: > 50 µM (active)

CCOC(=O)N1CCN(C(=O)CNCc2cccs2)CC1.O=C(O)C(=O)O
AC50 [4]: inconclusive

Oc1cc(-c2ccc(Br)cc2)[nH]n1
AC50 [10]: 3.06 µM (active)
IC50 [11]: 53.9 µM (active)
EC50 [12]: 0.718 µM (active)

COc1cc(C(=O)OCC(=O)Nc2cc(C)on2)ccc1OCc1ccccc1Cl
EC50 [6]: 7.95 µM (active)
EC50 [7]: 20.6 µM (active)
EC50 [8]: 4.54 µM (active)

Cn1c(-c2ccc(-c3ccccc3)cc2)cnc1S
EC50 [6]: 7.14 µM (active)
EC50 [7]: 15.6 µM (active)
EC50 [8]: 7.75 µM (active)

O=C(Nc1ccccc1)O[C@@H]1C[C@H]2CCC(=O)N3CC[C@@H](C1)[C@@H]23
EC50 [6]: 0.39 µM (active)
EC50 [7]: 53.9 µM (active)
EC50 [8]: 40.9 µM (active)

CCN(CC)c1ccc(NC(=O)COC(=O)COc2ccccc2[N+](=O)[O-])cc1
IC50 [11]: 10.4 µM (active)

CN(C)c1ccc(NC(S)=NCC2CCCO2)cc1 (configuration not stated)
IC50 [11]: 14.3 µM (active)
IC50 [13]: 85.6 µM (active)

CN1C(=O)/C(=C(/C#N)c2nc3ccccc3[nH]2)c2ccccc21
AC50 [2]: 11.2 µM (inconclusive)
AC50 [4]: inconclusive

COc1cc(C(=O)N/N=C/c2ccc(OC(=O)c3cccc(C)c3)c(OC)c2)ccc1O
IC50 [14]: > 79 µM (inactive)
EC50 [1]: > 50 µM (active)

C[C@@H]1CN([C@H](C)CO)C(=O)Cc2cc(NC(=O)Nc3cccc4ccccc34)ccc2O[C@H]1CN(C)Cc1ccccc1
AC50 [15]: 6.25 µM (active)

C[C@@H]1CN([C@H](C)CO)C(=O)Cc2cc(NC(=O)CCC(F)(F)F)ccc2O[C@@H]1CN(C)Cc1ccc(Oc2ccccc2)cc1
AC50 [15]: 2.81 µM (active)

C[C@@H]1CN([C@@H](C)CO)C(=O)c2cccc(NC(=O)CCCCCC(=O)Nc3ccccc3N)c2O[C@H]1CN(C)CC1CC1
AC50 [15]: 4.62 µM (active)

C[C@@H]1CCCCO[C@@H](CN(C)Cc2ccc(C(F)(F)F)cc2)[C@@H](C)CN([C@H](C)CO)C(=O)c2cc(NC(=O)Nc3ccccc3)ccc2O1
AC50 [15]: 5.35 µM (active)

C[C@@H]1CCCCO[C@@H](CN(C)C(=O)Nc2ccc(C(F)(F)F)cc2)[C@@H](C)CN([C@H](C)CO)C(=O)c2cc(NC(=O)Nc3ccc4c(c3)OCO4)ccc2O1
AC50 [15]: 4.09 µM (active)

C[C@@H]1CCCCO[C@@H](CN(C)C(=O)c2ccccc2)[C@@H](C)CN([C@H](C)CO)C(=O)c2cc(NC(=O)Nc3ccc(C(F)(F)F)cc3)ccc2O1
AC50 [15]: 6.48 µM (active)

C[C@@H]1CN([C@H](C)CO)C(=O)Cc2cc(NS(=O)(=O)c3ccc(F)cc3)ccc2O[C@H]1CN(C)Cc1ccc(Cl)c(Cl)c1
AC50 [15]: 2.26 µM (active)

Clc1ccc(CN2CCN(/N=C/c3ccco3)CC2)cc1
EC50 [1]: > 50 µM (active)

C/C(=N\NC(=O)c1cc(O)ccc1O)c1cccc(NC(=O)c2cccc(Cl)c2)c1
AC50 [9]: 1.18 µM (active)

CC[C@H](CO)NCCN[C@@H](CC)CO
AC50 [4]: inconclusive
